Assay [1] has as its target T1, Human soluble guanylate cyclase enzyme (hsGC) (Homo sapiens, UniProt Q02108+Q02153).
T1 construct: purchased Enzo Inc. ALX-201-177
T1 sequence (Q02153 1-619): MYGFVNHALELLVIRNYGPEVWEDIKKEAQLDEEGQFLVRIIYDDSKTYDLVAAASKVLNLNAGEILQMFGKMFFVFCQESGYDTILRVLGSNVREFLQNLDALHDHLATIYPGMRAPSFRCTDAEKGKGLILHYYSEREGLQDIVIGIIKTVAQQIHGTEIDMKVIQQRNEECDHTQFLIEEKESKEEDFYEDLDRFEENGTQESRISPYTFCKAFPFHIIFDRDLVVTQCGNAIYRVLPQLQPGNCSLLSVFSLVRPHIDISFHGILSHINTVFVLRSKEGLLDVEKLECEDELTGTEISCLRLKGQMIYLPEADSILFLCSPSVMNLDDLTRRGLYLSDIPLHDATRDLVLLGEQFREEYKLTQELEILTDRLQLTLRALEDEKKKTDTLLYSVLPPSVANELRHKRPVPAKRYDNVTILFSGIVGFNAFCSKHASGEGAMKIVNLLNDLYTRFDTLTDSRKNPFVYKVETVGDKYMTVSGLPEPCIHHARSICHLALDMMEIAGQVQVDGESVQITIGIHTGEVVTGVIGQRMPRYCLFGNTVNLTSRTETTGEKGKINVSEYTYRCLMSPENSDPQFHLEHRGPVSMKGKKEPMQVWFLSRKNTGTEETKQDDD
T1 sequence (Q02108 1-690): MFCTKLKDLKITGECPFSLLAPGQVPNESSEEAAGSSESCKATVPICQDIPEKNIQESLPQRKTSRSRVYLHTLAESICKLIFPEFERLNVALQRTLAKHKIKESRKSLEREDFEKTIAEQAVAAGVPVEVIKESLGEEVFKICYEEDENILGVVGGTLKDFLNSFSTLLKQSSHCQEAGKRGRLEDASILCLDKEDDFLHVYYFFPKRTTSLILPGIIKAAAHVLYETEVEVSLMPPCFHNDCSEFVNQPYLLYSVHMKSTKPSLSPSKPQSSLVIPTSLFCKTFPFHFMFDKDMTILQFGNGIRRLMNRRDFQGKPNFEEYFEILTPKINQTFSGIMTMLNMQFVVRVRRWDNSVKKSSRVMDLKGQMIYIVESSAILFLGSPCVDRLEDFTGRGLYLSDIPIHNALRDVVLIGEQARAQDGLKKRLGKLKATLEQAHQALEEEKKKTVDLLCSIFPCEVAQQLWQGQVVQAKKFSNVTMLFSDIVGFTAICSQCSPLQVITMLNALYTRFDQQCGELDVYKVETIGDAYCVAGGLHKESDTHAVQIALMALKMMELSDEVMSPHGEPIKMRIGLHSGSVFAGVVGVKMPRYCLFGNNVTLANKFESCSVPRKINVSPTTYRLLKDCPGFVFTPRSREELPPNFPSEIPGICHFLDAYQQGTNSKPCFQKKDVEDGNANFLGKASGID
Description: Purified human sGC enzyme synergy assay in the presence of 1 μM sodium nitroprusside (SNP). The assay is classed as biochemical. The settings on record: compound at 30 μM, presence of 1 μM SNP; Table 5A. The procedure, abridged:
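Purified hsGC (5 ng) incubated 30 min at 37 °C with compound (10 or 30 μM final) in Tris pH 8.0, 300 μM GTP, 1 mM IBMX, 2 mM MgCl2, with or without 1 μM SNP; stopped with cold methanol. cGMP quantified against standard curve; specific activity expressed as fold-change over DMSO control.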

Assay [2] concerns Thoracic aortic rings. Description: Alternative thoracic aortic rings assay (Example 5; original resting tension as 100% inhibition). The settings on record: rat thoracic aortic rings contracted with phenylephrine; for Aortic Ring Percent Relaxation at 1 μM: compound at 1 μM; for Aortic Ring Percent Relaxation at 3 μM: compound at 3 μM; for Aortic Ring Percent Relaxation at 10 μM: compound at 10 μM; for EC50: read-out: Aortic Ring EC50. The protocol:
Thoracic aortic rings were dissected from anesthetized (isoflurane) male Sprague-Dawley rats weighing 275-299 g. Tissues were immediately transferred to ice-cold Krebs-Henseleit solution, which had been aerated with 95% 02 and 5% CO2 for 30 minutes. Following removal of connective tissue, aortic sections were cut into 4 rings (˜2 mm each) and suspended on 2 L-shaped hooks, with one hook fixed at the bottom of the tissue bath (Schuler Organ Bath, Harvard Apparatus) and the other connected to a force transducer (F30 Force Transducer, Harvard Apparatus). Baths contained Krebs Henseleit solution (10 mL) heated to 37° C. and aerated with 95% 02 and 5% CO2. Rings were brought to an initial tension of 0.3-0.5 g and gradually raised to a resting tension of 1.0 g over 60 minutes. Rings were rinsed with Krebs Henseleit solution (heated to 37° C. and aerated with 95% 02 and 5% CO2) at 15 minute intervals until a stable baseline was obtained. Rings were considered to be stable after a resting tension of 1.0 g was maintained (for approximately 10 minutes) without need for adjustment. Rings were then contracted with 100 ng/mL phenylephrine by adding 100 μL of a 10 μg/mL phenylephrine stock solution. Tissues achieving a stable contraction were then treated in a cumulative, dose dependent manner with test compounds prepared in dimethylsulfoxide (DMSO). In some cases, tissues were rinsed three times over a 5 minute period with Krebs-Heinseleit's solution (heated to 37° C. and aerated with 95% 02 and 5% CO2), allowed to stabilize at baseline, and then used for characterization of other test articles or DMSO effects. All data were collected using the HSE-ACAD software provided by Harvard Apparatus. […] EC50 values were calculated from concentration-response curves generated with GraphPad Prism Software.
Biological Activity Measurement by the Thoracic Aortic Rings Assay
The biological data for some of a compound of Table I, in comparison with the known compound, BAY 41-2272, as the reference compound, determined by the thoracic aorta ring assay of Example 5 are presented in Table 6 below.

Structures are written as SMILES.

Usually EC50 stands for the concentration needed to bring the measured effect to its halfway point.

As to `Nc1nc(-c2cc(-c3ccon3)n(Cc3ccccc3F)n2)ncc1NC(=O)C1(c2ccccc2)CC1` [Compound 27], the “Enzyme Activity (increase at 30 μM with SNP)” value in assay [1] is given as “D (10 or <20 fold increase)”. Also, in assay [2], the “Aortic Ring Percent Relaxation at 1 μM” value was “F (80 to <100%)”, the “Aortic Ring Percent Relaxation at 3 μM” value is on record as “G (100 to <120%)”, the “Aortic Ring Percent Relaxation at 10 μM” value is listed as “G (100 to <120%)” and the EC50 was below 2000 nM.

Consider `Nc1nc(-c2cc(-c3ccon3)n(Cc3ccccc3F)n2)ncc1NC(=O)C1(F)CC1` [Compound 35], for which, in assay [1], the “Enzyme Activity (increase at 30 μM with SNP)” value was “E (20 to 30 fold increase)”. In assay [2], the “Aortic Ring Percent Relaxation at 1 μM” value is recorded as “G (100 to <120%)”, the “Aortic Ring Percent Relaxation at 3 μM” value was “H (higher than 120%)”, the “Aortic Ring Percent Relaxation at 10 μM” value is recorded as “H (higher than 120%)” and the EC50 is below 2000 nM.

Turning to `Nc1nc(-c2cc(-c3ccon3)n(Cc3cccc(F)c3F)n2)ncc1NC(=O)C1(C(F)(F)F)CC1` [Compound 40], the “Enzyme Activity (increase at 30 μM with SNP)” value in assay [1] is given as “D (10 or <20 fold increase)”. Further, in assay [2], the “Aortic Ring Percent Relaxation at 1 μM” value was “G (100 to <120%)”, the “Aortic Ring Percent Relaxation at 3 μM” value is listed as “G (100 to <120%)”, the “Aortic Ring Percent Relaxation at 10 μM” value is on record as “G (100 to <120%)” and the EC50 is below 2000 nM.

For the origin of these results see patent US20150342954A1, “2-BENZYL, 3-(PYRIMIDIN-2-YL) SUBSTITUTED PYRAZOLES USEFUL AS SGC STIMULATORS” (IRONWOOD PHARMACEUTICALS, INC., priority 2011, published 2015).
